How the values were obtained:
human Gal-1 (hGal-1) = human Gal-1 (hGal-1) (Homo sapiens, UniProt P09382, C131S/C17S/C43S/C61S/C89S); test: Competitive binding assay: biotinylated hGal-1 binding to microplate-adsorbed asialofetuin (ASF); conditions: IC50 values from several measurements given as geomean
Summary of the method: (§1)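 Biotinylated hGal-3 or hGal-1 (preferably cysteine-free Cys→Ser mutant), 300–1000 ng/mL, competes with compound for ASF-coated wells for 3 h at 4 °C. Bound lectin detected with streptavidin-peroxidase (80 ng/mL, 1 h, 4 °C) and ABTS by absorbance; IC50 reported as geomean of several runs.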

human Gal-3 (hGal-3) = human Gal-3 (hGal-3) (Homo sapiens (Human), UniProt P17931); test: Competitive binding assay: biotinylated hGal-3 binding to microplate-adsorbed asialofetuin (ASF); conditions: IC50 values from several measurements given as geomean
Sequence of human Gal-3 (hGal-3) (P17931 whole entry): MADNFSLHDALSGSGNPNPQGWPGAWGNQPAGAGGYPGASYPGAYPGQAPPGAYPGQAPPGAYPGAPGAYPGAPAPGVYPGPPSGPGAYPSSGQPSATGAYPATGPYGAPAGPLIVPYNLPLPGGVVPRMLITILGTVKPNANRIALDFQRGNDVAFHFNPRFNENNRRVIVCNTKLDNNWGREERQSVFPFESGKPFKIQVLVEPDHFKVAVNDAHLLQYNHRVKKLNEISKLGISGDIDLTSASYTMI
Summary of the method: as §1

Structure (SMILES) | IC50 (human Gal-1 (hGal-1)) | IC50 (human Gal-3 (hGal-3))
CO[C@@H]1[C@@H](n2cc(-c3ccc(F)c(F)c3F)nn2)[C@@H](O)[C@@H](CO)O[C@@H]1Cn1cc(C2(CO)CC2)nn1 [Ex 3.2.4.] | 650 nM | 100 nM
CO[C@@H]1[C@@H](n2cc(-c3ccc(F)c(F)c3F)nn2)[C@@H](O)[C@@H](CO)O[C@@H]1Cn1cc(C2(C)COC2)nn1 [Ex 3.2.6.] | 580 nM | 70 nM
CO[C@@H]1[C@@H](n2cc(-c3ccc(F)c(F)c3F)nn2)[C@@H](O)[C@@H](CO)O[C@@H]1Cn1cc(C23CC(C2)C3)nn1 [Ex 3.2.12.] | 970 nM | 40 nM
CO[C@@H]1[C@@H](n2cc(-c3ccc(F)c(F)c3F)nn2)[C@@H](O)[C@@H](CO)O[C@@H]1Cn1cc(C2(C)CCC2)nn1 [Ex 3.2.13.] | 670 nM | 80 nM
CO[C@@H]1[C@@H](n2cc(-c3ccc(F)c(F)c3F)nn2)[C@@H](O)[C@@H](CO)O[C@@H]1Cn1cc(C2(C)CC2)nn1 [Ex 3.2.23.] | 300 nM | 80 nM
CO[C@@H]1[C@@H](n2cc(-c3ccc(F)c(F)c3F)nn2)[C@@H](O)[C@@H](CO)O[C@@H]1Cn1cc(C2CCCC2)nn1 [Ex 3.2.32.] | 1150 nM | 60 nM
CO[C@@H]1[C@@H](n2cc(-c3ccc(F)c(F)c3F)nn2)[C@@H](O)[C@@H](CO)O[C@@H]1Cn1cc(C2(O)CCCC2)nn1 [Ex 3.2.33.] | 1250 nM | 90 nM
CO[C@@H]1[C@@H](n2cc(-c3ccc(F)c(F)c3F)nn2)[C@@H](O)[C@@H](CO)O[C@@H]1Cn1cc(C(C)(C)O)nn1 [Ex 3.2.34.] | 720 nM | 440 nM
CO[C@@H]1[C@@H](n2cc(-c3ccc(F)c(F)c3F)nn2)[C@@H](O)[C@@H](CO)O[C@@H]1Cn1cc(C2(O)CCOCC2)nn1 [Ex 3.2.35.] | 860 nM | 60 nM
CO[C@@H]1[C@@H](n2cc(-c3ccc(F)c(F)c3F)nn2)[C@@H](O)[C@@H](CO)O[C@@H]1Cn1cc(C2(O)CC2)nn1 [Ex 3.2.36.] | 2140 nM | 130 nM
CO[C@@H]1[C@@H](n2cc(-c3ccc(F)c(F)c3F)nn2)[C@@H](O)[C@@H](CO)O[C@@H]1Cn1cc(C23CCC(NC(=O)OC(C)(C)C)(CC2)CC3)nn1 [Ex 3.2.37.] | 1720 nM | 40 nM
CCC1(c2cn(C[C@H]3O[C@H](CO)[C@H](O)[C@H](n4cc(-c5ccc(F)c(F)c5F)nn4)[C@H]3OC)nn2)COC1 [Ex 3.2.38.] | 470 nM | 50 nM
CO[C@@H]1[C@@H](n2cc(-c3ccc(F)c(F)c3F)nn2)[C@@H](O)[C@@H](CO)O[C@@H]1Cc1cn(C23CCC(N)(CC2)CC3)nn1 [Ex 3.2.39.] | 810 nM | 50 nM
CO[C@@H]1[C@@H](n2cc(-c3ccc(Br)c(F)c3F)nn2)[C@@H](O)[C@@H](CO)O[C@@H]1Cc1cn([C@H]2CCC[C@@H]2O)nn1 [Ex 4.1.3.] | 4700 nM | 40 nM
CO[C@@H]1[C@@H](n2cc(-c3ccc(Br)c(F)c3F)nn2)[C@@H](O)[C@@H](CO)O[C@@H]1Cc1cn(C2(CO)CC2)nn1 [Ex 4.1.4.] | 2930 nM | 40 nM
CO[C@@H]1[C@@H](n2cc(-c3ccc(Br)c(F)c3F)nn2)[C@@H](O)[C@@H](CO)O[C@@H]1Cc1cn(C2(C)COC2)nn1 [Ex 4.1.6.] | 1460 nM | 40 nM

Structure (SMILES) | IC50 (human Gal-1 (hGal-1)) | IC50 (human Gal-3 (hGal-3))
CO[C@@H]1[C@@H](n2cc(-c3ccc(Br)c(F)c3F)nn2)[C@@H](O)[C@@H](CO)O[C@@H]1Cc1cn(C23CC(C2)C3)nn1 [Ex 4.1.12.] | 3920 nM | 40 nM
CO[C@@H]1[C@@H](n2cc(-c3ccc(Br)c(F)c3F)nn2)[C@@H](O)[C@@H](CO)O[C@@H]1Cc1cn(C2(C)CCC2)nn1 [Ex 4.1.13.] | 2200 nM | 20 nM
CO[C@@H]1[C@@H](n2cc(-c3ccc(Br)c(F)c3F)nn2)[C@@H](O)[C@@H](CO)O[C@@H]1Cc1cn(C23CC(C)(C2)C3)nn1 [Ex 4.1.14., (2R,3R,4S,5R,6R)-4-(4-(4-bromo-2,3-difluorophenyl)-1H-1,2,3-triazol-1-yl)-2-(hydroxymethyl)-5-methoxy-6-((1-(3-methylbicyclo[1.1.1]pentan-1-yl)-1H-1,2,3-triazol-4-yl)methyl)tetrahydro-2H-pyran-3-ol] | 1360 nM | 60 nM
CO[C@@H]1[C@@H](n2cc(-c3ccc(Br)c(F)c3F)nn2)[C@@H](O)[C@@H](CO)O[C@@H]1Cc1cn(C2(C)CC(F)(F)C2)nn1 [Ex 4.1.15.] | 2410 nM | 50 nM
CO[C@@H]1[C@@H](n2cc(-c3ccc(Br)c(F)c3F)nn2)[C@@H](O)[C@@H](CO)O[C@@H]1Cc1cn([C@]2(C)C[C@H](O)C2)nn1 [Ex 4.1.19.] | 1820 nM | 50 nM
COCC1(n2cc(C[C@H]3O[C@H](CO)[C@H](O)[C@H](n4cc(-c5ccc(Br)c(F)c5F)nn4)[C@H]3OC)nn2)CCC1 [Ex 4.1.21.] | 1530 nM | 70 nM
CO[C@@H]1[C@@H](n2cc(-c3ccc(Br)c(F)c3F)nn2)[C@@H](O)[C@@H](CO)O[C@@H]1Cc1cn(C2(CCO)COC2)nn1 [Ex 4.1.22.] | 1140 nM | 70 nM
CO[C@@H]1[C@@H](n2cc(-c3ccc(Br)c(F)c3F)nn2)[C@@H](O)[C@@H](CO)O[C@@H]1Cc1cn(C2(C)CC2)nn1 [Ex 4.1.23.] | 1800 nM | 30 nM
CO[C@@H]1[C@@H](n2cc(-c3ccc(Br)c(F)c3F)nn2)[C@@H](O)[C@@H](CO)O[C@@H]1Cc1cn(C23CC(C(F)(F)F)(C2)C3)nn1 [Ex 4.1.24.] | 28400 nM | 130 nM
CO[C@@H]1[C@@H](n2cc(-c3ccc(Br)c(F)c3F)nn2)[C@@H](O)[C@@H](CO)O[C@@H]1Cc1cn(C23CC(F)(C2)C3)nn1 [Ex 4.1.25., (2R,3R,4S,5R,6R)-4-(4-(4-bromo-2,3-difluorophenyl)-1H-1,2,3-triazol-1-yl)-6-((1-(3-fluorobicyclo[1.1.1]pentan-1-yl)-1H-1,2,3-triazol-4-yl)methyl)-2-(hydroxymethyl)-5-methoxytetrahydro-2H-pyran-3-ol] | 3220 nM | 50 nM
CO[C@@H]1[C@@H](n2cc(-c3ccc(Br)c(F)c3F)nn2)[C@@H](O)[C@@H](CO)O[C@@H]1Cc1cn(C(C)(C)C(F)F)nn1 [Ex 4.1.28.] | 1020 nM | 50 nM
CO[C@@H]1[C@@H](n2cc(-c3ccc(Br)c(F)c3F)nn2)[C@@H](O)[C@@H](CO)O[C@@H]1Cc1cn(C23CC(OC)(C2)C3)nn1 [Ex 4.1.29.] | 3630 nM | 50 nM
CO[C@@H]1[C@@H](n2cc(-c3ccc(Br)c(F)c3F)nn2)[C@@H](O)[C@@H](CO)O[C@@H]1Cc1cn(C2(CF)CCC2)nn1 [Ex 4.1.40., (2R,3R,4S,5R,6R)-4-(4-(4-bromo-2,3-difluorophenyl)-1H-1,2,3-triazol-1-yl)-6-((1-(1-(fluoromethyl)cyclobutyl)-1H-1,2,3-triazol-4-yl)methyl)-2-(hydroxymethyl)-5-methoxytetrahydro-2H-pyran-3-ol] | 1030 nM | 60 nM
CO[C@@H]1[C@@H](n2cc(-c3ccc(Br)c(F)c3F)nn2)[C@@H](O)[C@@H](CO)O[C@@H]1Cc1cn(C2(C(F)F)CCC2)nn1 [Ex 4.1.43.] | 960 nM | 30 nM
CO[C@@H]1[C@@H](n2cc(-c3ccc(Br)c(F)c3F)nn2)[C@@H](O)[C@@H](CO)O[C@@H]1Cc1cn(C23COC(C2)C3)nn1 [Ex 4.1.44.] | 3300 nM | 40 nM
